Reference: a melting point compilation (Tetko et al.; mined from patent text by program, amines drawn as free bases though some values may be those of a salt)

Structure (SMILES) | melting point
O=C(O)COc1ccc2c(-c3ccccc3F)noc2c1Br | 180 to 182 °C
CCOC(=O)C1=Cc2cc(Cl)cc(I)c2OC1C(F)(F)F (stereo not given) | 92.1 to 93.9 °C
CCCCCN1C(=O)C(CCC(=O)OC)(NC(=O)C2CCc3ccccc3C2)c2ccccc21 (stereo not given) | 172 to 179 °C
CC(=O)NCC1CC(c2cc(F)c(N3CCN(C(=O)CO)CC3)c(F)c2)=NO1 (single isomer, unassigned; (-)) | 220 to 221 °C
CCOc1ccc(S(=O)(=O)N2CCN(C)CC2)cc1-c1nc2c([nH]1)c1nncn1c(=O)n2CC | 248 °C
CCCn1nc(C(C)C)c(C(=O)OCc2cccc(C(=O)c3ccccc3)c2)c1Cc1ccc(-c2ccccc2S(=O)(=O)NC(=O)OC(C)(C)C)c(F)c1 | 55 to 59 °C
COCCNC(=O)CC1CN=C(c2cc3cc(Oc4ccc(S(C)(=O)=O)nc4)cc(OC)c3[nH]2)S1 (stereo not given) | 175 to 176 °C
COc1ccc2sc3c(c2c1)SCCNC3=O | 209 to 210 °C
Cc1cn(-c2ccc3nnc4c(C)nc(C5CCCCC5)n4c3c2)c(C2CCCCC2)n1 | 224 to 227 °C
CC(O)(C=Cc1ccc(S(=O)(=O)c2ccncc2)cc1)C(F)(F)F (stereo not given) | 168 to 171 °C
O=C1CCc2cc(Cl)c([N+](=O)[O-])cc21 | 110 to 113 °C
CCOC(=O)CCCCCN(C)S(=O)(=O)C1=C(C)NC(C)=C(C(=O)OC)C1c1cccc([N+](=O)[O-])c1 (stereo not given) | 83 to 86 °C
CCOC(=O)c1csc(-c2ccc3cc(O)c(C45CC6CC(CC(C6)C4)C5)cc3c2)c1 | 199 to 200 °C
ClCc1coc(C=C(c2ccccc2)c2ccccc2)n1 | 107 to 108 °C
CC(C)(C)OC(=O)N[C@H]1CCN(c2nc3c(cc2F)c(=O)[nH]c(=O)n3C2CC2)C1 | 220 to 222 °C
COn1c(C2CCCCC2)nc2c(N)nc3ccccc3c21 | 220 to 222 °C
CC(=O)OC(OC(C)=O)c1cccc(C(OC(C)=O)OC(C)=O)c1 | 110 to 130 °C
COC(=O)N/C(=C\C[PH](=O)CO)C(=O)O (stereo not given) | 254 to 256 °C
O=C1NC(=C(Br)c2ccccc2)C(=O)C1=NO | 158 °C
CN(CC1CCCCN1)C(=O)c1cc(OCC(F)(F)F)ccc1OCC(F)(F)F (stereo not given) | 104 to 107 °C
O=C(c1ccccc1CN1C(=O)C2(COc3cc4c(cc32)CCO4)c2ccccc21)N1CCCCC1 (stereo not given) | 168 to 170 °C
CS(=O)(=O)N=c1oc2ccccc2o1 | 161 to 163 °C
O=C(Nc1ccc2c(c1)CCN(C(=O)Nc1ccc(OCC(O)CO)cc1Cl)C2)Nc1ccccc1F (stereo not given) | 164 to 167 °C
Cn1nnc(N(Cc2ccccc2)C(=O)C2CCCC2)n1 | 54 °C

Structure (SMILES) | melting point
CCC(C)(C)CNc1c(N=O)c(C)nn1C | 45 to 50 °C
O=C1CC2(CC2)CC(=O)O1 | 102 °C
CCOC(=O)C1=NOC(c2ccccc2)(c2ccccc2)C1 | 78 to 81 °C
CCOC(=O)C(=CNC1CC1)C(=O)c1cc(Cl)c(F)c(Cl)c1F | 71 to 74 °C
S=C(NCCc1ccccc1Cl)Nc1nc2ccccc2[nH]1 | 166 to 169 °C
COc1ccc(S(=O)(=O)Nc2ccccc2O)cc1 | 89 °C
CCOC(=O)c1c[nH]nc1-c1ccc(Cl)cc1 | 95 to 100 °C
CC(C)(C)c1cc(C(=O)c2ccccc2C(=O)O)cc(C(C)(C)C)c1O | 173 to 174 °C
CCC(=O)N1N=C(c2ccc([N+](=O)[O-])c(C)c2)c2cc(Cl)ccc2C=C1C | 134 to 138 °C
c1cncc(-c2ccnc3nccn23)c1 | 162 to 164 °C
CC(C)=NOc1cc(OCc2ccccc2)ccc1C#N | 102 °C
Cc1cn(-c2ccc(F)cc2)c2ccc(Br)cc12 | 97 to 98 °C
CNc1cc(OC)c(-c2nc(C)c(-c3cccnc3)[nH]2)cc1Cl | 205 to 206 °C
O=C(CCCl)n1ccc2ccccc21 | 67 °C
CC(=O)Nc1ccc(C(=O)C2CCN(CC(=O)c3ccc(F)cc3)CC2)cc1 | 168 to 170 °C
O=C1c2ccccc2N=C(c2ccccc2)C1O (stereo not given) | 260 to 262 °C
CC(=O)SCCc1cccc(N)n1 | 55 to 59 °C
COC(=O)COc1ccc2cc(CNC(=O)c3cnn(-c4ccc(Cl)cc4)c3C(F)(F)F)ccc2c1 | 174 to 176 °C
COc1ccc2oc(S(=O)(=O)c3ccc(=O)[nH]n3)cc2c1 | 222 to 223 °C
COC(=O)C1CCC2C3CCC4CC5OC5CC4(C)C3C(NC(=O)OCC(Cl)(Cl)Cl)CC12C (stereo not given) | 153 to 155 °C
COc1ccc2ccc(OCc3ccc4ccccc4n3)cc2c1 | 113 to 114 °C
Fc1ccc(C(=C(c2ccccc2)c2ccc(OCCN3CCOCC3)cc2)C(F)(F)F)cc1 | 67 to 69 °C
COC(=O)c1ccc(OCCCO/N=C/c2cn(Cc3ccccc3)c3ccccc23)cc1O | 100 to 102 °C
Cc1ccccc1N(C)c1nc(=O)c2cccnc2s1 | 208 to 209 °C

Now from value to molecule:

melting point | Structure (SMILES)
236 °C | Cn1cncc1C(O)(c1ccc(-c2ccc(Cl)cc2)cc1)c1ccc2c(c1)c(-c1cccc(Cl)c1)cc(=O)n2C (stereo not given)
196 to 198 °C | N#Cc1cnn2c1N(C(=O)CCl)CC=C2c1cccc(Cl)c1
> 250 °C | CCN(CC)C(=O)c1ccc(-c2cc3c(Nc4cccc(Cl)c4)ncnc3[nH]2)cc1
130 to 131 °C | CCN1CCN(C(=O)c2ccc(C(=O)N3CCN(c4ncccc4NC(C)C)CC3)cc2)CC1
89 to 92 °C | Brc1c[nH]c2ccc(OCc3ccccc3)cc12
100 to 101 °C | O=CC(Cl)=Cc1cccc(Oc2ccc([N+](=O)[O-])c([N+](=O)[O-])c2)c1
66 to 68 °C | COc1ccc(C[C@H]2[C@H](CO)CCCN2C)cc1 (relative stereo)
263 to 265 °C | CCn1ncc2c(NCc3ccc(OC)cc3)c3cc(OC)ccc3nc21
172 to 173 °C | O=CC(=Cc1ccc(Cl)cc1)C(C=O)=Cc1ccc(Cl)cc1
148 to 149 °C | Cc1cc(C)cc(C(N)=O)c1
135 to 136 °C | COC(=O)CCc1cc2cc(C(F)(F)F)ccc2n1S(=O)(=O)c1ccc2nc(N)sc2c1
193 °C | Fc1cccc2nc(S)sc12
50 to 53 °C | CC1CN(C(=O)CO)C(C)(C)O1 (stereo not given)
162 to 164 °C | CNC(=O)c1cnn(-c2ccc(Cl)cc2C(F)(F)F)c1C#N
143 to 144 °C | C/C(=N\OCCOc1ccc(C(=O)O)c(Cl)c1)c1ccc(C(C)(C)C)cc1
157 to 160 °C | CCCOc1ccc(S(=O)(=O)NCc2ccncc2)cc1-c1nc2cc(N)c(N)cc2c(=O)[nH]1
128 to 130 °C | O=C(C1CCc2nc[nH]c2C1)N1CCc2ccccc2C1 (stereo not given)
142 to 144 °C | COc1cc(C(=O)NS(=O)(=O)c2ccccc2C)ccc1Cc1cn(C)c2ccc(C(=O)NC[C@H](C)CC(F)(F)F)cc12
192 to 194 °C | COc1ccc(-c2cncc(C#N)c2Oc2ccc3[nH]ccc3c2)cc1OC
> 300 °C | CC(=O)N(CC=C=CC=c1c(C)c2c(n(-c3ccccc3)c1=O)=NN(c1ccccc1)C2=O)c1ccccc1
116 °C | CCCSc1nc(Br)c(Br)n1Cc1cc2c(cc1Cl)OCO2
190 to 194 °C | COc1cc2c(c(OC)c1/C=C/c1ccc(C(N)=O)cc1)C(C)(C)CCC2(C)C
171 to 173 °C | COc1ccc(-c2nnc(C(Cl)(Cl)Cl)o2)cc1OC
75 to 76 °C | Fc1nc2ccccc2cc1Br
88 to 91 °C | CCCn1cc(CO)c(=O)c2ccccc21
243 to 247 °C | O=c1cc(N2CCOCC2)oc2c(-c3ccc(O)c(-c4ccccc4)c3)cccc12

melting point | Structure (SMILES)
285 to 287 °C | Cc1c(Cc2ccccc2)[nH]c2ccccc2c1=O
161 to 163 °C | COCC(=O)Nc1cccc(C2(C3CCN(C(=O)c4ccc(C(=O)OC)cc4)CC3)N=C(N)N(C)C2=O)c1 (stereo not given)
80.5 to 81.5 °C | CC(C)CCC1C(=O)N(c2c(F)c(F)nc(F)c2F)S(=O)(=O)N1C (stereo not given)
52 to 55 °C | CCCCCC(=O)c1cccc(OCc2ccc3ccccc3c2)c1
247 to 248 °C | COc1c(S(N)(=O)=O)cc(C(=O)O)c2c1OCCO2
120 to 121 °C | Oc1ccccc1-c1ccccc1P(c1cc(C(F)(F)F)cc(C(F)(F)F)c1)c1cc(C(F)(F)F)cc(C(F)(F)F)c1
81 to 82.3 °C | CCn1c(C)nc(OCc2ccc(OCc3ccc(F)cc3)cc2)c(C)c1=O
125 to 127 °C | CC(C)N1CCN(CCN2CCN(c3noc4cc(F)ccc34)CC2)C1=O
67 to 72 °C | CC(CCCc1ccccc1)Oc1cc(O)c2c(c1)CC(C)(C)CC2CC(N)=O (stereo not given)
172 to 174 °C | CCN1C(=O)C(=O)N(c2ccc(F)cc2)C1=S
124 to 125 °C | COC(=O)c1[nH]c(Br)c(Br)c1OC(C)C
139 to 141 °C | COc1ccc2c(c1)C(CCNC(C)=O)C1(CC2)Cc2ccccc2C1 (stereo not given)
118 to 120 °C | CNC(=O)c1ccnc(N2CCN(Cc3ccc(F)cc3)C2=O)c1
135 to 136 °C | CCOC(=O)C1=Cc2cc(C(F)F)ccc2OC1C(F)(F)F (stereo not given)
227 to 231 °C | COc1cccc2c(=O)[nH]c(-c3ccccc3)cc12
144 to 147 °C | CCOCc1nc2c(N)nc3cc(-c4ccc(Cl)c(Cl)c4)cnc3c2n1CC(C)(C)O
135 to 139 °C | CC(=O)Nc1ccc(C2COC(=O)O2)cn1 (stereo not given)
119 to 121 °C | Nc1ccc(OCCCCN2C(=O)c3ccccc3C2=O)cc1
189 to 190 °C | CC(=O)c1ccc(Cc2c(Cl)cc(N3N=CCNC3=O)cc2Cl)cc1
204 °C | Cc1nn(C)c(NC(=O)Nc2ccccc2)c1C1=CCCC1
196 to 200 °C | Cc1cccc(Nc2cc(Nc3ccc(OCCCO)cc3)ncn2)c1
229 to 235 °C | COc1cc2oc(=O)c(CCO)c(C)c2cc1O
233 to 235 °C | COC(=O)c1ccc2nc(-n3ccnc3)nc(NCCOCCO)c2c1
85 to 90 °C | COC(=O)CCCc1cc2nc(Cl)ccc2n1S(=O)(=O)c1ccccc1
155 to 157 °C | Nc1sc2c(c1C(=O)c1ccc(Cl)cc1)CCN(Cc1ccccc1)C2
210 to 211 °C | CCCCOc1nc(N)c2[nH]c(=O)n(CCCCNS(=O)(=O)c3ccc(CCC(=O)O)cc3)c2n1
